From article PMC4008261, “Rewiring of regenerated axons by combining treadmill training with semaphorin3A inhibition” (Molecular Brain, 2014) come the findings set out here.

Structures are written as SMILES.

The target of one experiment is Caspase 1 (Homo sapiens, UniProt P29466). Description: Pharmacological profile: enzyme inhibition. Format: biochemical. The text has this:
(§1) Table 1 Pharmacological profile of SM-345431 (part 1) | column: IC50 (μm)

The target of a further experiment is Caspase 3 (Homo sapiens, UniProt P42574). The experiment is described as follows: Pharmacological profile: enzyme inhibition. Format: biochemical.
Chain of Caspase 3 (P42574 29-175 limits assumed, species assumed): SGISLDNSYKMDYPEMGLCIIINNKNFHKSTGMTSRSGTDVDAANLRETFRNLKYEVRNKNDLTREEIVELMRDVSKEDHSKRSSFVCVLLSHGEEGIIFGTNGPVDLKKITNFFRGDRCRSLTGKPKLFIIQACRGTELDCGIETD
Chain of Caspase 3 (P42574 176-277 limits assumed, species assumed): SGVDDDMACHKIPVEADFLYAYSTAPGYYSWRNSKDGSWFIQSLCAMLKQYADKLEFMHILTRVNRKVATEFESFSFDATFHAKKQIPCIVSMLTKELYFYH
Excerpt: as §1

In the next experiment the target is Caspase 6 (Homo sapiens, UniProt P55212). The experiment is described as follows: Pharmacological profile: enzyme inhibition. Format: biochemical.
Excerpt: as §1

The next experiment has as its target Caspase 7 (Homo sapiens, UniProt P55210). Description: Pharmacological profile: enzyme inhibition. Format: biochemical.
Excerpt: as §1

The target in another experiment is Caspase 8 (Homo sapiens, UniProt Q14790). Description: Pharmacological profile: enzyme inhibition. Format: biochemical.
Chain of Caspase 8 (Q14790 217-374 limits assumed, species assumed): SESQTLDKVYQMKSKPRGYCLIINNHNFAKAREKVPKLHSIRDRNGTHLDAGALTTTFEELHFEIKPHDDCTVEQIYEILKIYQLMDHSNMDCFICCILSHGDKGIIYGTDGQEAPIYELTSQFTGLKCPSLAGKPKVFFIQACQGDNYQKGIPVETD
Chain of Caspase 8 (Q14790 385-479 limits assumed, species assumed): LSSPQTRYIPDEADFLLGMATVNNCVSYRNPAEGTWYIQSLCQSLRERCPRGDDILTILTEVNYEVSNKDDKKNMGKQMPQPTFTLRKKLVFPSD
Excerpt: as §1

The target of experiment [1] is Matrix Metalloproteinase-1 (MMP-1) (Homo sapiens, UniProt P03956). The experiment is described as follows: Pharmacological profile: enzyme inhibition. Format: biochemical.
Chain of Matrix Metalloproteinase-1 (MMP-1) (P03956 100-469, species assumed): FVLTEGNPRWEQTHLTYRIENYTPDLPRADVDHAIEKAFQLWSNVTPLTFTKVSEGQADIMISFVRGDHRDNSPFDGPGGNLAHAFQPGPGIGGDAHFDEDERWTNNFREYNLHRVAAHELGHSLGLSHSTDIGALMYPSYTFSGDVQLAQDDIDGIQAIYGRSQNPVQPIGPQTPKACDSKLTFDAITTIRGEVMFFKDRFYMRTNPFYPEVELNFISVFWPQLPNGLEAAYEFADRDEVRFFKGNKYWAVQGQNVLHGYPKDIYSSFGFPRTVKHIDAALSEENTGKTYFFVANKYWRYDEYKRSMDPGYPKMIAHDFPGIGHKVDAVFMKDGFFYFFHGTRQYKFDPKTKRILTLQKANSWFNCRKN
Excerpt: as §1

Experiment [2] addresses Matrix Metalloproteinase-2 (MMP-2) (Homo sapiens, UniProt P08253). The experiment is described as follows: Pharmacological profile: enzyme inhibition. Format: biochemical.
Excerpt: as §1

Experiment [3] concerns the target Matrix Metalloproteinase-3 (MMP-3) (Homo sapiens, UniProt P08254). The experiment is described as follows: Pharmacological profile: enzyme inhibition. Format: biochemical.
Excerpt: as §1

The target in experiment [4] is Matrix Metalloproteinase-7 (MMP-7) (Homo sapiens, UniProt P09237). The experiment is described as follows: Pharmacological profile: enzyme inhibition. Format: biochemical.
Chain of Matrix Metalloproteinase-7 (MMP-7) (P09237 95-267, species assumed): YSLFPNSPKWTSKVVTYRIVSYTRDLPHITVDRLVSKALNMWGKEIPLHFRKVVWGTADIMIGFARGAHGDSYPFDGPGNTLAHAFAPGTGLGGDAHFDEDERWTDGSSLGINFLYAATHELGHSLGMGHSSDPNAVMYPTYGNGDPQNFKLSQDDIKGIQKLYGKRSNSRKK
Excerpt: as §1

Experiment [5] deals with Matrix Metalloproteinase-9 (MMP-9) (Homo sapiens, UniProt P14780). Description: Pharmacological profile: enzyme inhibition. Format: biochemical.
Chain of Matrix Metalloproteinase-9 (MMP-9) (P14780 94-707, species assumed): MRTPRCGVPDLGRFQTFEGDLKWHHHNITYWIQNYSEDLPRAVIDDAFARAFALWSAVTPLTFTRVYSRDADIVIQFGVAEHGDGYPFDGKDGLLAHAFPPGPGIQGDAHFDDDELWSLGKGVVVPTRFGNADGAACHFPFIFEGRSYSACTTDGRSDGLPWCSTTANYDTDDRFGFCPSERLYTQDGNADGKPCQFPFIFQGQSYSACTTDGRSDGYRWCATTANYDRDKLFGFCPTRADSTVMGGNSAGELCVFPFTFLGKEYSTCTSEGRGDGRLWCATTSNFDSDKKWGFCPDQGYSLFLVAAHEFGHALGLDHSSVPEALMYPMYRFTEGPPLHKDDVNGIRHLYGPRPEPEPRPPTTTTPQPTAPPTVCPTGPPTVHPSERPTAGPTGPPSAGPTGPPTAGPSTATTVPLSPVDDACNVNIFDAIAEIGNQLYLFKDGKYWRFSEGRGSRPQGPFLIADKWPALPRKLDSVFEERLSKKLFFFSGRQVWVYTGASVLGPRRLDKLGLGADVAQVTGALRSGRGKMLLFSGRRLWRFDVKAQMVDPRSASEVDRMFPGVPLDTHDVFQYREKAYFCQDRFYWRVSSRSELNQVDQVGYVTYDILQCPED
Excerpt: as §1

In experiment [6] the target is Protein Tyrosine Phosphatase, CD45 (Homo sapiens, UniProt P08575). The experiment is described as follows: Pharmacological profile: enzyme inhibition. Format: biochemical.
Chain of Protein Tyrosine Phosphatase, CD45 (P08575 26-1306): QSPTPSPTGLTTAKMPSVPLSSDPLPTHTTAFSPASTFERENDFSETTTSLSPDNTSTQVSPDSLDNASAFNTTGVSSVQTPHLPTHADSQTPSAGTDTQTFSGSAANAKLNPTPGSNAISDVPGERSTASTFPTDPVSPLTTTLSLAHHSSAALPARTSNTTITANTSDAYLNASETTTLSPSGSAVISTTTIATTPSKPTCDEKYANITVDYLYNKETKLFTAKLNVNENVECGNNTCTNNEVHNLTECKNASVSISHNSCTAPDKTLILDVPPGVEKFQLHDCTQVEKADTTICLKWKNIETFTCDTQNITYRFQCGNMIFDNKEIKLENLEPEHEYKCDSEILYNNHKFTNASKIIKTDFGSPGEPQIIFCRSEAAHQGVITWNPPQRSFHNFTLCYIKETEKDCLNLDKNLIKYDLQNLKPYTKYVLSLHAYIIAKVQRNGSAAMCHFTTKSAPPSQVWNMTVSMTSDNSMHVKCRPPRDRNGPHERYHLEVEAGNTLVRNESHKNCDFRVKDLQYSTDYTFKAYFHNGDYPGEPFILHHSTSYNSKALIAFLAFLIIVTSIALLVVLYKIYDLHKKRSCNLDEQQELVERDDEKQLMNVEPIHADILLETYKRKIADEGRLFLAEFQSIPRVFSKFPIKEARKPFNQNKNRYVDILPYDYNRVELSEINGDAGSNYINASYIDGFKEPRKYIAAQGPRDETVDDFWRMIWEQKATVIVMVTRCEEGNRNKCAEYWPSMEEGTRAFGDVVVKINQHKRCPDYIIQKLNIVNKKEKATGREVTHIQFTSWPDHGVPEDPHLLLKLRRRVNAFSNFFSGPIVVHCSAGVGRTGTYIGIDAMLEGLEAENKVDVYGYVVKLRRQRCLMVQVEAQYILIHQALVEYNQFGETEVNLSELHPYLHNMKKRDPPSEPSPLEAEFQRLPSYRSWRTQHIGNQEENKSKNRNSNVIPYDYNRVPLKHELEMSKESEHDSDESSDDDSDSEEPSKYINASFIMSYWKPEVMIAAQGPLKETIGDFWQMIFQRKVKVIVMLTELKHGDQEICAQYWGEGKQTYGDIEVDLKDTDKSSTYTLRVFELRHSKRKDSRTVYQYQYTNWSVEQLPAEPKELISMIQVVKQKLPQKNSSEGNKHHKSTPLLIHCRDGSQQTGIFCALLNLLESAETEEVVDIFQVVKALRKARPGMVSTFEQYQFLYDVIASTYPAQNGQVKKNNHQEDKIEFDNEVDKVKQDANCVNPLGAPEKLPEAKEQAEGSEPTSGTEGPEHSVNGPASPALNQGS
Excerpt: as §1

Experiment [7] has as its target Protein Tyrosine Phosphatase, PTP1B (Homo sapiens, UniProt P18031). Description: Pharmacological profile: enzyme inhibition. Format: biochemical.
Excerpt: as §1

Experiment [8] deals with Protein Tyrosine Phosphatase, PTP1C (Homo sapiens, UniProt P29350). Description: Pharmacological profile: enzyme inhibition. Format: biochemical.
Chain of Protein Tyrosine Phosphatase, PTP1C (P29350 whole entry): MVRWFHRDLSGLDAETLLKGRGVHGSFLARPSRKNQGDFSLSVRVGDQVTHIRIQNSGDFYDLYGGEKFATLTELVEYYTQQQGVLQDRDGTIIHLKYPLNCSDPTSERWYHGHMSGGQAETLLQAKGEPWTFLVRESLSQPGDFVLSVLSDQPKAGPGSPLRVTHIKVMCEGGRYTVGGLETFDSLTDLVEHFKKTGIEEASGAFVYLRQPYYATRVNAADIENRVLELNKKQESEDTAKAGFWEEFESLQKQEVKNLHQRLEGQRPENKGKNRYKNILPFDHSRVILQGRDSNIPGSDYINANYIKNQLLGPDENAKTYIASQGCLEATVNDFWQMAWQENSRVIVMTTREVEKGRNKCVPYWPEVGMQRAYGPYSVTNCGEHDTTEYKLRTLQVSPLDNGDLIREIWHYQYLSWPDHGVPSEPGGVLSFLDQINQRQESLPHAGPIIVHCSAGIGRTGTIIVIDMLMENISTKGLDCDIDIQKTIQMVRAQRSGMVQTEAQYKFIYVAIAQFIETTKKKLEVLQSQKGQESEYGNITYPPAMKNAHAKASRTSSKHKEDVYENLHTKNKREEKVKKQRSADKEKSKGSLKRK
Excerpt: as §1

The target in experiment [9] is Protein Tyrosine Phosphatase, T-Cell (Homo sapiens, UniProt P17706). Description: Pharmacological profile: enzyme inhibition. Format: biochemical.
Excerpt: as §1

Experiment [10] deals with Sphingomyelinase, Neutral (N-SMase). Description: Pharmacological profile: enzyme inhibition. Format: biochemical.
Excerpt: as §1

The subject of another experiment is SCT adult rats. Description: Axonal regeneration after SCT (GAP43, 5-HT/GFAP immunostaining, BDA tracing). Format: in vivo, rat. To be noted: for number of GAP43 axons versus control: especially 1 mm caudal to the injury epicenter. The protocol:
Rats were randomly divided into the following three experimental groups: 1) untrained + placebo, 2) untrained + SM-345431 and 3) trained + SM-345431. SCT was performed, and SM-345431 or placebo was administered at the lesion site via the newly developed DDS, which is described in detail below. Starting 1 week post-injury, treadmill training commenced with a BSS. Kinematic tests were performed monthly for 3 months after SCT using a rodent robotic device (Rodent robot 3000, Robomedica Inc.) that primarily assessed the performance of plantar stepping on a treadmill. Treadmill training was continued throughout the experimental period.
A total of 53 adult female Sprague-Dawley rats (200-250 g, 10-12 weeks old) were used in this study (3 rats died during the experimental period and were excluded from the statistical analysis). All procedures were approved by the experimental animal care committee of Keio University, School of Medicine and Murayama Medical Center (approval #12-8). All rats were anesthetized with an intraperitoneal injection of ketamine (100 mg/kg)/xylazine (10 mg/kg). The spinal cord at the level of the T10 lamina was exposed by T10 laminectomy, and the dorsal dura mater was opened. The exposed spinal cord was cut along the inner edge of the vertebra with a sharp micro-scissor. Two more cuts were made at the gap of the transected spinal cord by a scalpel to ensure total transection. SM-345431 or placebo was administered to the transected site via the newly developed DDS as described in detail below (Figure 1G-I). After these procedures, the back muscles and skin were closed. Rats were kept warm in an incubator (37°C) after surgery. To prevent dehydration in the rats, 10 ml of saline was subcutaneously injected daily until day 7. Ampicillin (0.4 g/kg) was also injected intramuscularly daily to prevent infection until day 7. The bladder was evacuated manually until autonomous emptying of the bladder was achieved. The re-transection procedure was performed at the same level as the primary SCT (15 rats total; 5 rats from each group). Kinematic data were recorded using similar procedures prior to re-transection surgery (on the same day) and on the day following re-transection surgery. For CST tracing, 10% BDA was injected as follows. Nine weeks after SM-345431 or placebo administration, BDA (10000 MW, Molecular Probes) was injected into six different sites of the sensorimotor cortices of the rats under general anesthesia (site 1: 2.0 mm lateral, 0 mm to bregma; site 2: 2.0 mm lateral, 2 mm posterior to bregma; site 3: 2.0 mm lateral, 4 mm posterior to bregma; site 4: 4 mm lateral, 0 mm to bregma; site 5: 4 mm lateral, 2 mm posterior to bregma and site 6: 4 mm lateral, 4 mm posterior to bregma). For each site, injections were performed at two different depths (1.2 mm and 1.6 mm), and 3 μl of 10% BDA was injected at a rate of 0.15 μl/min using a micro-injector. Three weeks after the BDA injection, rats were sacrificed and used for immunohistochemistry.
A novel matrix silicone preparation was developed to allow continuous drug delivery at the site of injury. The amount of drug released from this matrix silicone preparation in vitro was measured as described in Figure 1. Matrix silicone sheets (0.3 mm thick) containing SM-345431 were trimmed into 3-mm-square pieces to fit into the opened dura. After SCT, one piece of silicone sheet was placed on the transected spinal cord gap so that it could act on the spinal cord directly.
Twelve weeks after SCT, rats were deeply anaesthetized by an intraperitoneal injection of 14% chloral hydrate and then perfused intracardially with 4% paraformaldehyde (PFA) in 0.1 M phosphate-buffered saline (PBS). The spinal cord tissues were dissected and post-fixed in 4% PFA (24 h) and placed in 10% sucrose in 0.1 M PBS (24 h) followed by 30% sucrose in 0.1 M PBS (24 h). All the rats other than 3 rats died during the experimental period were used for the histological analysis. […]

[11] abbreviates: SM-345431 combined with treadmill training.
Setting [12] is: SM-345431 via silicone DDS alone.

Chain of Caspase 1 (P29466 120-297 limits assumed, species assumed): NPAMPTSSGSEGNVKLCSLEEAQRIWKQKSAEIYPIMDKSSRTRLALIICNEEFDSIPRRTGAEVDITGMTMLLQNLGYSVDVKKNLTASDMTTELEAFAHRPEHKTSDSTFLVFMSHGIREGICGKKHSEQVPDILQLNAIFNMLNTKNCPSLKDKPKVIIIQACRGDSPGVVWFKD
Chain of Caspase 1 (P29466 317-404 limits assumed, species assumed): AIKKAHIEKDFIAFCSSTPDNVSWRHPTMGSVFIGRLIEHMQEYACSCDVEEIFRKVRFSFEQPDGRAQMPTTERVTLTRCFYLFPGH
Chain of Protein Tyrosine Phosphatase, PTP1B (P18031 whole entry): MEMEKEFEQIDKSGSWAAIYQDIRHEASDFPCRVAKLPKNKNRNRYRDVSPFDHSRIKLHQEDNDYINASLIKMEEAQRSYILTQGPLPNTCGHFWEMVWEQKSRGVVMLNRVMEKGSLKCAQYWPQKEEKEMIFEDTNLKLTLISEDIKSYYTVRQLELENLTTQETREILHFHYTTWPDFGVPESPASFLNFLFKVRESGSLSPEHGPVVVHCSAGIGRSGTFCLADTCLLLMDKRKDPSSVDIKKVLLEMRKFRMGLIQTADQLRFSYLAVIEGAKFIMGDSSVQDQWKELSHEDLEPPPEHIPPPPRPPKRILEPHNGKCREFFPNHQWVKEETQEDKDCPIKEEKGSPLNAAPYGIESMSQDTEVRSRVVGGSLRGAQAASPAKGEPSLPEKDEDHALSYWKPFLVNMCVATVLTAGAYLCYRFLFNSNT
Chain of Matrix Metalloproteinase-3 (MMP-3) (P08254 100-477, species assumed): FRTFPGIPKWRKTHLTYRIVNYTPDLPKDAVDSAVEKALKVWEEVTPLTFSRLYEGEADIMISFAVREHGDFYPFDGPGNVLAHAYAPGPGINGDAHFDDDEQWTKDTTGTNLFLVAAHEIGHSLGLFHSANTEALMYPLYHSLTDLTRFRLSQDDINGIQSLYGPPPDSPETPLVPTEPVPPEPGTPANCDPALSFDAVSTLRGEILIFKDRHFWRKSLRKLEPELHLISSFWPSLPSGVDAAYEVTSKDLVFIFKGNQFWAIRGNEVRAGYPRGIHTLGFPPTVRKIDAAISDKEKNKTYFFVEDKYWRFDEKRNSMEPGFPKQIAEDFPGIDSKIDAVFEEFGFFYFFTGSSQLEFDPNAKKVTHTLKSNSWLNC

Take `CC(=O)c1cc2c(=O)c3c(C(=O)O)c(O)c(O)cc3oc2c(C(C)=O)c1-c1coc2cc(O)c(O)c(C(=O)O)c2c1=O` [SM-345431, Vinaxanthone]: the IC50 (against Caspase 1; against Caspase 3; against Caspase 6; on Caspase 7; on Caspase 8; in [1]) was over 10 µM throughout. Also, the IC50 was over 10 µM in experiment [2]; over 10 µM in [3]; 10 µM in [4]; over 10 µM in [5]; over 10 µM in [6]; over 10 µM in experiment [7]. The IC50 in [8], in experiment [9] and in [10] was over 10 µM throughout. Further, the “5-HT-positive axons penetrating the GFAP-negative scar tissue versus control” value in the experiment with SCT adult rats (setting [11]) and in the experiment on SCT adult rats (setting [12]) was “significantly more 5-HT-positive axons penetrated the GFAP-negative scar tissue area” throughout. Further, the figures for the “CST axon regeneration (BDA tracing)” value with SCT adult rats (setting [11]) and with SCT adult rats (setting [12]) were “no clear CST regeneration beyond the lesion epicenter was observed” and “no obvious CST regeneration beyond the lesion epicenter was observed”, respectively. The “number of GAP43 axons versus control” value in the experiment on SCT adult rats (setting [11]) and with SCT adult rats (setting [12]) was “significantly increased” in each case.
